The text below walks through data of patent US5872138A, “Thrombin inhibitors” (Merck & Co., Inc., priority 1997, dated 1999).

The target in this test is T1, human a-thrombin (Homo sapiens, UniProt P00734).
T1 construct: human a-thrombin
Nature of the test: In vitro assay for determining proteinase inhibition (thrombin Ki). Format: biochemical. The note with it: 25° C., pH 7.4, read-out: Ki (thr). On the procedure: In vitro assay for determining proteinase inhibition Assays of human a-thrombin and human trypsin were performed at 25° C. in 0.05M TRIS buffer pH 7.4, 0.15M NaCl, 0.1% PEG. Trypsin assays also contained 1 mM CaCl2. In assays wherein rates of hydrolysis of a p-nitroanilide (pna) substrate were determined, a Thermomax 96-well plate reader was used to measure (at 405 nm) the time dependent appearance of p-nitroaniline. […] Activity assays were performed by diluting a stock solution of substrate at least tenfold to a final concentration 0.5 Km into a solution containing enzyme or enzyme equilibrated with inhibitor. Times required to achieve equilibration between enzyme and inhibitor were determined in control experiments. Initial velocities of product formation in the absence (Vo) or presence of inhibitor (Vi) were measured. Assuming competitive inhibition, and that unity is negligible compared Km /[S], […] (where [S], [I], and e respectively represent the total concentrations, of substrate, inhibitor and enzyme), the equilibrium constant (Ki) for dissociation of the inhibitor from the enzyme can be obtained from the dependence of Vo /Vi on [I] shown in equation 1.

Read-outs that look alike come from different tables or passages of the source.

The Ki is the dissociation constant of the complex between target and ligand, obtained from inhibition or displacement. `c1cc(NCc2ccc(OCCCCC3CCCCC3)cc2)ccn1`: the Ki (Table 2) was > 1000 nM.

Regarding `CC(C)C(Oc1ccc(CNc2ccncc2)cc1)c1ccc2c(c1)OCO2` (centres unmarked), the Ki (Table 2) is > 1000 nM.

With `Nc1cc[n+](Cc2ccc(OCc3ccccc3)cn2)cc1`, the Ki (Table I) was > 1000 nM.

Consider `c1ccc(C(Oc2ccc(CNc3ccncc3)cc2)c2ccccc2)cc1` [N-4-(1,1-diphenylmethoxy)benzylaminopyridine], for which the Ki (Table 2) was > 1000 nM.

For the molecule `Nc1cc[n+](Cc2ccc(OC(C3CCCCC3)C3CCCCC3)cc2)cc1` [4-amino-1-[4-(dicyclohexylmethoxy)benzyl]pyridinium bromide], the Ki (Table I) fell in the range of 100 to 1000 nM.
